# Source: patent publication US20050080113A1, “Medicinal compositions” (priority 2001, published 2005)
# What was measured:
# human p38 MAP kinase = target: T1, human p38 MAP kinase (Homo sapiens, UniProt Q16539); assay: Inhibition of active type p38 MAP kinase (32P incorporation into Myelin Basic Protein), Reference Example K 1; format: biochemical; details: Reference Example H compounds, 30° C., 60 minutes
# T1 construct: made in house; host or cells: Sf-21 insect cells, baculovirus (BAC-HP38 co-infected with BAC-caMKK3)
# Procedure: Genetic manipulation methods described below are based on methods described in Maniatis et al., Molecular Cloning, ColdSpring Harbor Laboratory, 1989, and the appended reagent protocol.
# (1) Cloning of Human p38 MAP Kinase Gene and Preparation of Recombinant Baculovirus
# Cloning of human p38 MAP kinase gene was conducted by a PCR method using primer set p38 U: 5′-[…] C-3′ [SEQ ID No. 1] and PAG-L: 5′-[…]-3′ [SEQ ID No. 2] synthesized referring to the nucleotide sequence of p38 MAP kinase gene of Han et al., Science 265 (5173), 808 811 (1994), utilizing kidney cDNA (QUICK-Clone cDNA, manufactured by Toyobo Co., Ltd.) as a template.
# A PCR reaction was performed according to Hot Start method using AmpliWax PCR Gem 100 (Takara Shuzo Co., Ltd.). For preparing lower layer mixed liquid, 2 μL of 10×LA PCR Buffer, 3 μL of 2.5 mM dNTP solution, each 2.5 μL of 12.5 μM primer solution, and 10 μL of sterile distilled water were mixed. For preparing upper layer mixed liquid, 1 μL of human heart cDNA (1 ng/mL) as a template, 3 μL of 10×LA PCR Buffer, 1 μL of 2.5 mM dNTP solution, 0.5 μL of TaKaRa LA Taq DNA polymerase (Takara Shuzo Co., Ltd.) and 24.5 μL of sterile distilled water were mixed. To the prepared lower mixed liquid was added one AmpliWax PCR Gem 100 (Takara Shuzo Co., Ltd.), treated for 5 minutes at 70° C. and 5 minutes in ice, then, the upper mixed liquid was added, to prepare a reaction solution for PCR. A tube filled with the reaction solution was set on Thermal Cycler (Perkin Elmer), then, treated for 2 minutes at 95° C. Further, a cycle including 15 seconds at 95° C. and 2 minutes at 68° C. was repeated 35 times, then, treated for 8 minutes at 72° C. The resulted PCR product was subjected to agarose gel (1%) electrophoresis, a 1.1 kb DNA fragment containing a p38 MAP kinase gene was recovered from the gel, then, pT7Blue-T vector (Takara Shuzo Co., Ltd.) was inserted to prepare a plasmid pHP38.
# 4.8 kb XhoI-KpnI fragment of plasmid pFASTBAC1 (CIBCOBRL) and 1.1 kb XhoI-Kpn fragment of the above-mentioned plasmid pHP38 were ligated to construct plasmid pFBHP38.
# Plasmid pFBHP38 and BAC-TO-BAC Baculovirus Expression System (GIBCOBRL) were used to prepare virus stock BAC-HP38 of recombinant baculovirus.
# (2) Cloning of Human MKK3 Gene and Preparation of Recombinant Baculovirus
# Cloning of human MKK3 gene was conducted by a PCR method using primer set MKK-U: 5′-[…] 3′ [SEQ ID No. 3] and MKK-L: 5′-[…]-3′ [SEQ ID No. 4] synthesized referring to the nucleotide sequence of MKK3 gene of Derijard, B. et al., Science 267 (5198), 682 685 (1995), utilizing kidney cDNA (QUICK-Clone cDNA, manufactured by Toyobo Co., Ltd.) as a template.
# A PCR reaction was performed according to Hot Start method using AmpliWax PCR Gem 100 (Takara Shuzo Co., Ltd.). […]
# [1] = test system: TNF-α production in THP-1 cells; assay: Measurement of inhibitory activity of TNF-α production (LPS-stimulated THP-1 cells, ELISA), Reference Example K 2; format: cell-based; details: Homo sapiens, Reference Example H compounds, LPS 5 μg/mL, 4 hours, read-out: IC50 (inhibition of TNF-α production)
# Procedure: THP-1 cells cultured in a PRMI 1640 medium (Life Technologies, Inc., USA) containing 1% inactivated fetal bovine serum (Life Technologies, Inc.) and 10 mM HEPES (pH 7.5) were inoculated on a 96 well plate to give 1×10^5 cells/well, then, 1 μL of a sample compound dissolved in DMSO was added. After incubation for 1 hour at 37° C. in a CO2 incubator, LPS (Wako Pure Chemical Industries Ltd.) was added to give a final concentration of 5 μg/mL. After incubation for 4 hours at 37° C. in a CO2 incubator, the supernatant was obtained by centrifugal separation. The TNF-α concentration in the supernatant was measured by ELISA (R&D Systems, Quantikine Kit). The concentration (IC50 value) of a sample compound necessary for inhibiting 50% of TNF-α production was calculated by PRISM 2.01 (GraphPad Software).
# T1 sequence (Q16539 whole entry): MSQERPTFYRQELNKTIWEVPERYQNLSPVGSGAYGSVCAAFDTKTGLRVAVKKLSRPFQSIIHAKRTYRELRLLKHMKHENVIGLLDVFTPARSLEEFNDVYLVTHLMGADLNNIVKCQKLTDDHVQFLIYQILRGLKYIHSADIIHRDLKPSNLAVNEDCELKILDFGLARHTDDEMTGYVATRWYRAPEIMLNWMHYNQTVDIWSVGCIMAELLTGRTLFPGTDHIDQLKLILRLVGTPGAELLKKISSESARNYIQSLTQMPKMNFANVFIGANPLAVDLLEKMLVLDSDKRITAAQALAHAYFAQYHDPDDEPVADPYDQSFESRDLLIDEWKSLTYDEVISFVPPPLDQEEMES
Structure (SMILES),IC50 (human p38 MAP kinase),IC50 [1],melting point
CCc1nc(-c2cccc(Cl)c2)c(-c2ccnc(NC3CCCCC3)c2)s1 [36-10],1.1 nM,55 nM,106 to 107 °C
"CCc1nc(-c2cccc(Cl)c2)c(-c2ccnc(NC(C)=O)c2)s1 [H 30-2, N-[4-[4-(3-chlorophenyl)-2-ethyl-1,3-thiazol-5-yl]-2-pyridyl]acetamide]",10 nM,120 nM,149 to 150 °C
CCC(=O)Nc1cc(-c2sc(-c3ccc(S(C)(=O)=O)cc3)nc2-c2cccc(Cl)c2)ccn1 [58-7],8.4 nM,21 nM,224 to 225 °C
"Cc1cccc(-c2nc(N)sc2-c2ccnc(NC3CCCCC3)c2)c1 [H 34-2, [5 (2 cyclohexylamino-4-pyridyl)-4 (3 methylphenyl)-1,3thiazol-2 yl]amine]",9.9 nM,2 nM,168 to 169 °C
